Experimental data: PubChem BioAssay (NCI)
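Test compounds were applied to cells in 96-well plates for 48 hours at 5 doses. GI50 marks 50% less growth. TGI: total growth inhibition.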

How the values were obtained:
Assay in all cases: NCI-60 cell line screen, 48 h
UACC-62 melanoma = system: UACC-62 melanoma
SK-MEL-2 melanoma = system: SK-MEL-2 melanoma
SF-268 CNS = system: SF-268 CNS
K-562 leukemia = system: K-562 leukemia
CCRF-CEM leukemia = system: CCRF-CEM leukemia
T-47D breast = system: T-47D breast
NCI-H522 lung = system: NCI-H522 lung
SF-295 CNS = system: SF-295 CNS
SK-OV-3 ovarian = system: SK-OV-3 ovarian
HL-60(TB) leukemia = system: HL-60(TB) leukemia
NCI-H226 lung = system: NCI-H226 lung
BT-549 breast = system: BT-549 breast
HOP-62 NSCLC = system: HOP-62 NSCLC
CAKI-1 renal = system: CAKI-1 renal
A549 NSCLC = system: A549 NSCLC
SF-539 CNS = system: SF-539 CNS
A498 renal = system: A498 renal
ACHN renal = system: ACHN renal
U251 CNS = system: U251 CNS
HCT-116 colon = system: HCT-116 colon
NCI-H23 lung = system: NCI-H23 lung
MOLT-4 leukemia = system: MOLT-4 leukemia
HS 578T breast = system: HS 578T breast
HCT-15 colon = system: HCT-15 colon
NCI-H460 lung = system: NCI-H460 lung
EKVX NSCLC = system: EKVX NSCLC
IGROV1 ovarian = system: IGROV1 ovarian
OVCAR-3 ovarian = system: OVCAR-3 ovarian
SK-MEL-5 melanoma = system: SK-MEL-5 melanoma
OVCAR-8 ovarian = system: OVCAR-8 ovarian
MCF7 breast = system: MCF7 breast
RXF 393 renal = system: RXF 393 renal
HCC-2998 colon = system: HCC-2998 colon
SR leukemia = system: SR leukemia
HOP-92 NSCLC = system: HOP-92 NSCLC
PC-3 prostate = system: PC-3 prostate
SNB-75 CNS = system: SNB-75 CNS
MDA-MB-435 = system: MDA-MB-435
MALME-3M melanoma = system: MALME-3M melanoma
UACC-257 melanoma = system: UACC-257 melanoma
SNB-19 CNS = system: SNB-19 CNS
SW-620 colon = system: SW-620 colon
TK-10 renal = system: TK-10 renal
LOX IMVI melanoma = system: LOX IMVI melanoma
SK-MEL-28 melanoma = system: SK-MEL-28 melanoma
DU-145 prostate = system: DU-145 prostate
UO-31 renal = system: UO-31 renal
M14 melanoma = system: M14 melanoma
KM12 colon = system: KM12 colon
NCI/ADR-RES ovarian = system: NCI/ADR-RES ovarian
COLO 205 colon = system: COLO 205 colon
HT29 colon = system: HT29 colon
RPMI-8226 leukemia = system: RPMI-8226 leukemia
786-0 renal = system: 786-0 renal

SMILES: COc1cc(/C=C/C(=O)c2ccc(Nc3nc(NCCO)nc(N4CCOCC4)n3)cc2)cc(OC)c1OC
- GI50 (UACC-62 melanoma): 1.54 µM
- TGI (UACC-62 melanoma): 3.2 µM
- GI50 (SK-MEL-2 melanoma): 1.71 µM
- TGI (SK-MEL-2 melanoma): 3.73 µM
- GI50 (SF-268 CNS): 1.88 µM
- TGI (SF-268 CNS): 5.54 µM
- GI50 (K-562 leukemia): 0.783 µM
- TGI (K-562 leukemia): 7.56 µM
- GI50 (CCRF-CEM leukemia): 0.935 µM
- TGI (CCRF-CEM leukemia): 3.54 µM
- GI50 (T-47D breast): 1.8 µM
- TGI (T-47D breast): 6.68 µM
- GI50 (NCI-H522 lung): 1.59 µM
- TGI (NCI-H522 lung): 4.11 µM
- GI50 (SF-295 CNS): 3.03 µM
- TGI (SF-295 CNS): > 100 µM
- GI50 (SK-OV-3 ovarian): 3.05 µM
- TGI (SK-OV-3 ovarian): 27.5 µM
- GI50 (HL-60(TB) leukemia): 1.79 µM
- TGI (HL-60(TB) leukemia): 4.78 µM
- GI50 (NCI-H226 lung): 2.15 µM
- TGI (NCI-H226 lung): 5.18 µM
- GI50 (BT-549 breast): 1.35 µM
- TGI (BT-549 breast): 2.86 µM
- GI50 (HOP-62 NSCLC): 2.72 µM
- TGI (HOP-62 NSCLC): 7.75 µM
- GI50 (CAKI-1 renal): 2.09 µM
- TGI (CAKI-1 renal): 11 µM
- GI50 (A549 NSCLC): 2.18 µM
- TGI (A549 NSCLC): > 100 µM
- GI50 (SF-539 CNS): 1.63 µM
- TGI (SF-539 CNS): 3.16 µM
- GI50 (A498 renal): 1.32 µM
- TGI (A498 renal): 5.01 µM
- GI50 (ACHN renal): 1.95 µM
- TGI (ACHN renal): 5.61 µM
- GI50 (U251 CNS): 1.38 µM
- TGI (U251 CNS): 2.97 µM
- GI50 (HCT-116 colon): 1.3 µM
- TGI (HCT-116 colon): 3 µM
- GI50 (NCI-H23 lung): 2.03 µM
- TGI (NCI-H23 lung): 5.17 µM
- GI50 (MOLT-4 leukemia): 1.19 µM
- TGI (MOLT-4 leukemia): 4.37 µM
- GI50 (HS 578T breast): 1.65 µM
- TGI (HS 578T breast): 5.46 µM
- GI50 (HCT-15 colon): 1.43 µM
- TGI (HCT-15 colon): 4.4 µM
- GI50 (NCI-H460 lung): 1.58 µM
- TGI (NCI-H460 lung): 3.47 µM
- GI50 (EKVX NSCLC): 2.83 µM
- TGI (EKVX NSCLC): > 100 µM
- GI50 (IGROV1 ovarian): 1.9 µM
- TGI (IGROV1 ovarian): 4.59 µM
- GI50 (OVCAR-3 ovarian): 1.69 µM
- TGI (OVCAR-3 ovarian): 4.26 µM
- GI50 (SK-MEL-5 melanoma): 1.76 µM
- TGI (SK-MEL-5 melanoma): 3.28 µM
- GI50 (OVCAR-8 ovarian): 2.2 µM
- TGI (OVCAR-8 ovarian): > 100 µM
- GI50 (MCF7 breast): 1.17 µM
- TGI (MCF7 breast): 2.77 µM
- GI50 (RXF 393 renal): 1.46 µM
- TGI (RXF 393 renal): 3.23 µM
- GI50 (HCC-2998 colon): 1.8 µM
- TGI (HCC-2998 colon): 3.3 µM
- GI50 (SR leukemia): 0.422 µM
- TGI (SR leukemia): 3.22 µM
- GI50 (HOP-92 NSCLC): 1.61 µM
- TGI (HOP-92 NSCLC): 7.4 µM
- GI50 (PC-3 prostate): 2.14 µM
- TGI (PC-3 prostate): 7.18 µM

SMILES: CC[N+](CC)=c1cc2oc3cc(N(C)C)ccc3nc-2cc1C
- GI50 (UACC-62 melanoma): 3.24 µM
- TGI (UACC-62 melanoma): 31.1 µM
- GI50 (SK-MEL-2 melanoma): 0.519 µM
- TGI (SK-MEL-2 melanoma): 4.82 µM
- GI50 (SNB-75 CNS): 2.59 µM
- TGI (SNB-75 CNS): 11.1 µM
- GI50 (SF-268 CNS): 1.18 µM
- TGI (SF-268 CNS): 3.48 µM
- GI50 (K-562 leukemia): 1.78 µM
- TGI (K-562 leukemia): > 100 µM
- GI50 (MDA-MB-435): 2.15 µM
- TGI (MDA-MB-435): 17.7 µM
- GI50 (CCRF-CEM leukemia): 2.3 µM
- TGI (CCRF-CEM leukemia): 65.4 µM
- GI50 (T-47D breast): 0.563 µM
- TGI (T-47D breast): > 100 µM
- GI50 (MALME-3M melanoma): 1.53 µM
- TGI (MALME-3M melanoma): 5.33 µM
- GI50 (UACC-257 melanoma): 0.306 µM
- TGI (UACC-257 melanoma): 1.56 µM
- GI50 (SNB-19 CNS): 2.9 µM
- TGI (SNB-19 CNS): > 100 µM
- GI50 (SF-295 CNS): 1.93 µM
- TGI (SF-295 CNS): 16.8 µM
- GI50 (SW-620 colon): 0.791 µM
- TGI (SW-620 colon): 23 µM
- GI50 (SK-OV-3 ovarian): 4.45 µM
- TGI (SK-OV-3 ovarian): 98.7 µM
- GI50 (TK-10 renal): 1.94 µM
- TGI (TK-10 renal): 8.38 µM
- GI50 (LOX IMVI melanoma): 1.71 µM
- TGI (LOX IMVI melanoma): 12.3 µM
- GI50 (HL-60(TB) leukemia): 0.313 µM
- TGI (HL-60(TB) leukemia): 2.83 µM
- GI50 (NCI-H226 lung): 6.76 µM
- TGI (NCI-H226 lung): 47.2 µM
- GI50 (SK-MEL-28 melanoma): 8.4 µM
- TGI (SK-MEL-28 melanoma): 42.1 µM
- GI50 (BT-549 breast): 0.932 µM
- TGI (BT-549 breast): 13.6 µM
- GI50 (DU-145 prostate): 4.36 µM
- TGI (DU-145 prostate): 33.4 µM
- GI50 (HOP-62 NSCLC): 1.98 µM
- TGI (HOP-62 NSCLC): 37.1 µM
- GI50 (CAKI-1 renal): 3.07 µM
- TGI (CAKI-1 renal): 19.6 µM
- GI50 (A549 NSCLC): 1.71 µM
- TGI (A549 NSCLC): 16 µM
- GI50 (SF-539 CNS): 0.39 µM
- TGI (SF-539 CNS): 13.1 µM
- GI50 (UO-31 renal): 3.76 µM
- TGI (UO-31 renal): 41.9 µM
- GI50 (A498 renal): 1.54 µM
- TGI (A498 renal): 30.8 µM
- GI50 (ACHN renal): 10.8 µM
- TGI (ACHN renal): > 100 µM
- GI50 (M14 melanoma): 0.471 µM
- TGI (M14 melanoma): 2.65 µM
- GI50 (U251 CNS): 0.538 µM
- TGI (U251 CNS): 6.06 µM
- GI50 (KM12 colon): 0.975 µM
- TGI (KM12 colon): 14.7 µM
- GI50 (HCT-116 colon): 0.563 µM
- TGI (HCT-116 colon): 4.85 µM
- GI50 (NCI/ADR-RES ovarian): 4.23 µM
- TGI (NCI/ADR-RES ovarian): > 100 µM
- GI50 (NCI-H23 lung): 0.482 µM
- TGI (NCI-H23 lung): 6.79 µM
- GI50 (HS 578T breast): 10.5 µM
- TGI (HS 578T breast): 64.2 µM
- GI50 (HCT-15 colon): 2.75 µM
- TGI (HCT-15 colon): > 100 µM
- GI50 (NCI-H460 lung): 1.86 µM
- TGI (NCI-H460 lung): 73.6 µM
- GI50 (COLO 205 colon): 0.66 µM
- TGI (COLO 205 colon): 2.27 µM
- GI50 (EKVX NSCLC): 1.53 µM
- TGI (EKVX NSCLC): 17.3 µM
- GI50 (OVCAR-3 ovarian): 0.296 µM
- TGI (OVCAR-3 ovarian): 1.02 µM
- GI50 (HT29 colon): 3.47 µM
- TGI (HT29 colon): > 100 µM
- GI50 (SK-MEL-5 melanoma): 1.04 µM
- TGI (SK-MEL-5 melanoma): 5.69 µM
- GI50 (RPMI-8226 leukemia): 0.628 µM
- TGI (RPMI-8226 leukemia): 10.1 µM
- GI50 (OVCAR-8 ovarian): 2.11 µM
- TGI (OVCAR-8 ovarian): 9.93 µM
- GI50 (MCF7 breast): 0.352 µM
- TGI (MCF7 breast): 2.48 µM
- GI50 (RXF 393 renal): 15.2 µM
- TGI (RXF 393 renal): 90.1 µM
- GI50 (SR leukemia): 2.74 µM
- TGI (SR leukemia): 75 µM
- GI50 (786-0 renal): 5.12 µM
- TGI (786-0 renal): > 100 µM
- GI50 (HOP-92 NSCLC): 1.15 µM
- TGI (HOP-92 NSCLC): 8.19 µM
- GI50 (PC-3 prostate): 0.454 µM
- TGI (PC-3 prostate): > 100 µM
